Experimental data published in ChEMBL document CHEMBL1201862, “PubChem BioAssay data set” (2004).
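1) Cells in 96-well plates. 2) Compound, 48 h, 5 concentrations. 3) Linear interpolation between surrounding doses. 4) Unreached endpoint = highest concentration. GI50 = concentration required for 50% inhibition of growth.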 The source made the active and inactive calls. No stated cut-off is given here; in the data, active = GI50 up to about 1.1 µM and inactive = higher. Non-standard residues stand in square brackets, D forms with d. Residues, ends and D or L forms follow the SMILES beside them. ξ: configuration not given here. *: point of attachment. ξF = NC(Cc1ccccc1)C(=O)O; Cbz = O=C(OCc1ccccc1)*; Aib = CC(C)(N)C(=O)O

Experiments:
Test in all cases: NCI-60 cell line screen, 48 h
[1] = system: A549
[2] = system: ACHN
[3] = system: CCRF-CEM
[4] = system: HCT-116
[5] = system: HCT-15
[6] = system: HOP-62
[7] = system: HOP-92
[8] = system: IGROV-1
[9] = system: KM12
[10] = system: LOX IMVI
[11] = system: M19-MEL
[12] = system: NCI-H226
[13] = system: RXF 393
[14] = system: SK-MEL-28
[15] = system: SK-MEL-2
[16] = system: SNB-19
[17] = system: SW-620
[18] = system: TK-10
[19] = system: SK-MEL-5
[20] = system: MCF7

Row | SMILES | GI50 [1] | GI50 [2] | GI50 [3] | GI50 [4] | GI50 [5] [µM] | GI50 [6] | GI50 [7] | GI50 [8] | GI50 [9] | GI50 [10] | GI50 [11] | GI50 [12] | GI50 [13] | GI50 [14] | GI50 [15] | GI50 [16] | GI50 [17] | GI50 [18] | GI50 [19] | GI50 [20]
1 | O=c1sc2ccccc2n1CC1CS1 (stereo unspecified) | > 100 µM (inactive) | > 100 µM (inactive) | > 100 µM (inactive) | > 100 µM (inactive) | > 100 | > 100 µM (inactive) | > 100 µM (inactive) | > 100 µM (inactive) | > 100 µM (inactive) | > 100 µM (inactive) | > 100 µM (inactive) | > 100 µM (inactive) | > 100 µM (inactive) | > 100 µM (inactive) | > 100 µM (inactive) | > 100 µM (inactive) | > 100 µM (inactive) | > 100 µM (inactive) |  | 
2 | C/C(CCOC1CCCCO1)=C(\C)[Si](C)(C)C (stereo unspecified) | > 100 µM (inactive) | > 100 µM (inactive) | 65.5 µM (inactive) | > 100 µM (inactive) | > 100 |  | > 100 µM (inactive) | > 100 µM (inactive) | > 100 µM (inactive) | > 100 µM (inactive) | > 100 µM (inactive) |  |  | > 100 µM (inactive) | > 100 µM (inactive) | > 100 µM (inactive) | > 100 µM (inactive) | > 100 µM (inactive) | > 100 µM (inactive) | 
3 | Nc1ccn(C2OC(COP(=O)(O)Oc3ccccc3)C(O)C2O)c(=O)n1 (stereo unspecified) | 3.73 µM (inactive) |  | 1.01 µM (active) | 5.57 µM (inactive) | > 60 |  | 18.6 µM (inactive) | > 56.5 µM (inactive) | > 100 µM (inactive) | 6.61 µM (inactive) | 50.2 µM (inactive) | > 100 µM (inactive) | > 45.8 µM (inactive) | 9.38 µM (inactive) | > 100 µM (inactive) | > 59.4 µM (inactive) | > 100 µM (inactive) |  | > 42.9 µM (inactive) | 13 µM (inactive)
4 | CCOC(=O)CNC(=O)C(Cc1ccccc1)NC(=O)C(C)(C)NC(=O)OCc1ccccc1 (stereo unspecified) (Cbz-[Aib]-[ξF]-Gly-OEt) | > 100 µM (inactive) | > 100 µM (inactive) | > 100 µM (inactive) | > 100 µM (inactive) | > 100 | > 100 µM (inactive) | > 100 µM (inactive) | > 100 µM (inactive) |  | 49.4 µM (inactive) |  |  |  | 17.9 µM (inactive) |  | > 100 µM (inactive) | > 100 µM (inactive) | > 100 µM (inactive) | 64.1 µM (inactive) | > 100 µM (inactive)
5 | COc1ccc(N2C(=O)C(=O)N(C)C2=O)c2ccccc12 | > 10 µM (inactive) | > 10 µM (inactive) | > 10 µM (inactive) | > 10 µM (inactive) | > 10 | > 10 µM (inactive) |  | > 10 µM (inactive) | > 10 µM (inactive) | > 10 µM (inactive) |  | > 10 µM (inactive) | > 10 µM (inactive) | > 10 µM (inactive) | > 10 µM (inactive) | > 10 µM (inactive) | > 10 µM (inactive) | > 10 µM (inactive) | > 10 µM (inactive) | > 10 µM (inactive)
6 | C[n+]1cccc2c(=O)c3ccccc3oc21 | > 100 µM (inactive) | > 100 µM (inactive) | > 100 µM (inactive) | > 100 µM (inactive) | > 100 | > 100 µM (inactive) | > 100 µM (inactive) | > 100 µM (inactive) | > 100 µM (inactive) | > 100 µM (inactive) |  | > 100 µM (inactive) | > 100 µM (inactive) | > 100 µM (inactive) | > 100 µM (inactive) | > 100 µM (inactive) | > 100 µM (inactive) | > 100 µM (inactive) | > 100 µM (inactive) | > 100 µM (inactive)
7 | CN1C(=O)c2ccccc2NC(=O)c2cnn(C)c21 | > 100 µM (inactive) |  | > 100 µM (inactive) | > 21.6 µM (inactive) | > 100 | > 100 µM (inactive) | > 100 µM (inactive) | > 100 µM (inactive) | > 100 µM (inactive) | > 100 µM (inactive) | > 100 µM (inactive) | > 100 µM (inactive) | > 100 µM (inactive) | > 100 µM (inactive) | > 100 µM (inactive) | > 100 µM (inactive) | > 100 µM (inactive) |  | > 100 µM (inactive) | > 100 µM (inactive)
8 | COc1ccc(N2NC(c3ccccc3)(c3ccccc3)C(C)C2=O)cc1 (stereo unspecified) | 34.4 µM (inactive) | 42.7 µM (inactive) | 35.6 µM (inactive) | 43 µM (inactive) | 39.5 | > 100 µM (inactive) | 48.5 µM (inactive) | > 100 µM (inactive) | 33 µM (inactive) | 44 µM (inactive) |  | 49.8 µM (inactive) | 52.4 µM (inactive) | > 100 µM (inactive) | 51.8 µM (inactive) | > 100 µM (inactive) | 58.9 µM (inactive) | 86.7 µM (inactive) | 58.9 µM (inactive) | 25.5 µM (inactive)
9 | COc1ccc(-n2cnnc2-c2nsc3ccccc23)cc1 | > 100 µM (inactive) | 90.6 µM (inactive) | > 100 µM (inactive) | > 100 µM (inactive) | 51.6 | 94.8 µM (inactive) | 45.1 µM (inactive) | > 100 µM (inactive) | 95.1 µM (inactive) | > 100 µM (inactive) | > 100 µM (inactive) |  | 12.4 µM (inactive) | 78.2 µM (inactive) | > 100 µM (inactive) | > 100 µM (inactive) | > 100 µM (inactive) | > 100 µM (inactive) | > 100 µM (inactive) | 
10 | COC1=CC(=O)c2c(c(O)c3oc4cc(OC)cc(C)c4c(=O)c3c2O)C1=O [BIKAVERIN] | 1.6 µM (inactive) |  | 0.741 µM (active) | 1.02 µM (active) | 1.21 | 1.1 µM (active) | 0.578 µM (active) | 1.08 µM (active) | 3.25 µM (inactive) | 0.535 µM (active) | 0.908 µM (active) | 0.159 µM (active) | 0.912 µM (active) | 2.03 µM (inactive) | 0.865 µM (active) | 2.28 µM (inactive) | 1.6 µM (inactive) |  | 1 µM (active) | 1.69 µM (inactive)
